Results published in BindingDB's records for doi:10.1021/jm0009641 (University of Bristol, 2000).

Experiments:
[1] = Displacement of radioligand [3H]- DPDPE on Opioid receptor delta 1 in monkey brain membranes
[2] = Displacement of radioligand [3H]- DAMGO on Opioid receptor mu 1 in monkey brain membranes range; Value ranges from (0.32-0.91)
[3] = Displacement of radioligand [3H]- DPDPE on Opioid receptor delta 1 in monkey brain membranes range; Value ranges from (34.0-43.2)
[4] = Displacement of radioligand [3H]- U-69,593 on Opioid receptor kappa 1 in monkey brain membranes range; Value ranges from (9.7-14.2)

Compound | Ki [1] | Ki [2] | Ki [3] | Ki [4]
COc1ccc2c3c1O[C@H]1C(=O)CC[C@@]4(NC(=O)/C=C/c5ccc(Cl)cc5)[C@@H](C2)N(CC2CC2)CC[C@]314 [1N-[4-cyclopropylmethyl-10-methoxy-14-oxo-(13R)-12-oxa-4-azapentacyclo[9.6.1.01,13.05,17.07,18]octadeca-7,9,11(18)-trien-17-yl]-3-(4-chlorophenyl)-(E)-2-propenamide] | 4.5 nM | – | – | –
O=C(/C=C/c1ccc(Cl)cc1)N[C@@]12CCC(=O)[C@@H]3Oc4c(O)ccc5c4[C@@]31CCN(CC1CC1)[C@@H]2C5 [1N-[4-cyclopropylmethyl-10-hydroxy-14-oxo-(17S)-12-oxa-4-azapentacyclo[9.6.1.01,13.05,17.07,18]octadeca-7,9,11(18)-trien-17-yl]-3-(4-chlorophenyl)-(E)-2-propenamide(Clocinnamox (C-CAM))] | 1.6 nM | – | – | –
O=C(/C=C/c1ccc(Cl)cc1)NC12CCC(=O)C3Oc4cccc5c4[C@@]31CCN(CC1CC1)C2C5 (stereo partly drawn) [1N-[4-cyclopropylmethyl-14-oxo-(13R)-12-oxa-4-azapentacyclo[9.6.1.01,13.05,17.07,18]octadeca-7,9,11(18)-trien-17-yl]-3-(4-chlorophenyl)-(E)-2-propenamide] | – | 0.54 nM | 37 nM | 12 nM
